Experimental data taken from patent publication US20170368082A1, “FORMULATIONS OF BRINCIDOFOVIR” (priority 2016, published 2017).
In brackets after ≈: the same amount, converted by molar mass. Entries after “also recorded” stand apart in the source; their conditions may differ. Read-outs that look alike come from different tables or passages of the source.

Key:
[1] = system: rat whole blood; assay: Hemolytic potential, cyanmethemoglobin method, rat whole blood; type: cell-based; details: for Estimated % Hemolysis: based on normal rat hemoglobin 13 g/dL; for Mean HgB Concentration: interference control, Phase 1
Protocol: (§1) Each concentration of test item for the rat was mixed separately in a 1:4 ratio with rat whole blood while each concentration of test item for the human was mixed separately in a 1:4 ratio with human whole blood. These samples plus control samples [vehicle control (vehicle+whole blood, 1 for rat and 1 for humans), positive control (1% Saponin+whole blood), untreated whole blood control and negative control (saline+whole blood) were analyzed for hemolysis (supernatant hemoglobin concentration).
(§2) The rat and human whole blood samples were incubated in test or control items at 37±1° C. for 20 minutes and then immediately (within 2 minutes) centrifuged at 3500±100 rpm (2740 g) at room temperature for 5-10 minutes. The supernatant was extracted and subjected to a hemoglobin analysis using the cyanmethemoglobin method employed on the Siemens Advia 120 hematology analyzer. If the test item has a potential for causing hemolysis, then hemoglobin released from lysed red blood cells into the plasma supernatant can be quantified via the reaction of heme iron in solution being oxidized from a ferrous to a ferric state in the presence of potassium cyanide. The reaction results in the formation of methemoglobin, which then combines with cyanide to form a stable cyanmethemoglobin. When measured spectrophotometrically at 546 nm the absorbance of cyanmethemoglobin follows Beer's Law and is directly proportional to the concentration of hemoglobin released into solution.
as §2, with “Without wishing to be bound by theory, if” for “If”

[2] = system: human whole blood; assay: Hemolytic potential, cyanmethemoglobin method, human whole blood; type: cell-based; details: for Mean HgB Concentration: interference control, Phase 2
Protocol: as §1, §2
as §2, with “Without wishing to be bound by theory, if” for “If”

[3] = Brincidofovir equilibrium solubility in formulation vehicles; type: physicochemical
Protocol: The recovery of brincidofovir in the sample supernatant was determined at different time points to establish when the solubility equilibrium was reached. Two samples of vehicle #57, were saturated with brincidofovir. […] Consequently, the pH had to be brought up close to the target pH before more brincidofovir was added.

[4] = Stability study I: physical degradation and benchmark stability study; type: physicochemical
Protocol: Testing of the chemical degradation was performed in an accelerated stability study setup applying heat as an accelerator/stressor. An Arrhenius analysis was carried out providing an API half-life and a degradation rate at lower temperatures. Physical stability was evaluated at the desired storage temperature (2-8° C.); a benchmark/reference condition was likewise included in the study. The setup of the study is specified below:
Physical degradation and benchmark stability study: 2-8° C., 25° C.
Physical degradation and benchmark stability study: initial, 14 and 28 days,
appearance, pH, c(BCV) recovery (HPLC), purity (HPLC), and liquid particle counting (physical degradation and benchmark stability study),
The results of the physical/benchmark stability for both tested formulations are summarized in Table 11 and Table 12, respectively. The purities of the formulations at different temperatures were determined by comparing chromatograms obtained at different temperatures and time points during the study.

[5] = pH stability of brincidofovir stock solutions (50 μg/mL, 50 mM phosphate pH 6.0-8.0, 20% methanol); type: physicochemical
Protocol: Brincidofovir sample stock solutions (50 μg/mL) were prepared in 50 mM phosphate buffer at pH 6.0-8.0 containing 20% methanol. The samples were aliquoted and stored at two temperatures (T=2-8° C. and T=40° C.), and monitored for pH and recovery of brincidofovir at multiple time points over the course of two weeks. Under both conditions, the samples maintained the pH level throughout the time course of the experiment.
The decrease may be related to the observed precipitation. Variation for pH 7.0 is observed for t>8 days. One impurity (RT=4.7 min) was detected that exceeded the set total peak area threshold that was applied for peak integration. The percent of the total peak area was below 0.4% for samples at pH 6 and 6.5, and below 0.1% for samples at higher pH.
For the samples at lower pH, a peak associated with the deamination product of brincidofovir, was observed, encompassing an area % of 1.91 at pH 6.0, and 0.58 at pH 6.5. The degradants peak is not observed at neutral pH and above.

[6] = cited from earlier work
[7] = Tube 2A: Test Item (0.2 mg/mL) + saline
[8] = Tube 2B: Test Item (0.5 mg/mL) + saline
[9] = Tube 2C: Test Item (1.6 mg/mL) + saline

For `CCCCCCCCCCCCCCCCOCCCOP(=O)(O)CO[C@H](CO)Cn1ccc(N)nc1=O` [Brincidofovir], the “Brincidofovir concentration with in vitro evidence of hemolysis” value [1] was “above 0.75 mg/mL”, the Hemolysis classification ([1]; 0.2 mg/mL) was “non-hemolytic (Formulations with a hemolysis value of <10% are considered to be non-hemolytic)” and the Calculated % hemolysis ([1]; 0.5 mg/mL ([…])) was 2.4%. For the same compound, the Calculated % hemolysis ([1]; 1.6 mg/mL ([…])) was 13.0%, the Hemolysis classification ([1]; 0.5 and 1.6 mg/mL) was “not considered a hemolytic risk” and the “Estimated % Hemolysis” value ([1]; Tube 1B: Test Item (0.5 mg/mL) + rat whole blood) was 2.4%. The “Estimated % Hemolysis” value ([1]; Tube 1C: Test Item (1.6 mg/mL) + rat whole blood) was 13.0%, the “Mean HgB Concentration” value [1, 7] was 0.0 g/dL and the “Mean HgB Concentration” value [1, 8] was 0.0 g/dL. The “Mean HgB Concentration” value [1, 9] was 0.0 g/dL, the “Hemocompatibility / hemolytic potential” value ([2]; 0.2, 0.5 and 1.6 mg/mL) was “no hemolytic potential in human whole blood; also recorded: no effect from brincidofovir on hemocompatibility” and the “Mean HgB Concentration” value [2, 7] was 0.0 g/dL. The “Mean HgB Concentration” value [2, 8] was 0.0 g/dL, the “Mean HgB Concentration” value [2, 9] was 0.0 g/dL and the solubility thermodynamic ([3]; pH 6.9, thermodynamic from solid) was roughly 25 mg/mL (≈ 44.5 mM). The solubility thermodynamic ([3]; pH 8, thermodynamic from solid) was greater than 270 mg/mL, the “Degradation over one month” value ([4]; 2-8 °C) was 6% and the “Degradation over one month” value ([4]; 25 °C) was 8%. The Purity of brincidofovir ([4]; over one month) was 99%, the “Impurity (RT=4.7 min), percent of total peak area” value ([5]; 2-8 °C, higher pH) was “below 0.1%” and the “Time at which precipitation was observed” value ([5]; 2-8 °C, pH 6.0) was 2 days. The “Impurity (RT=4.7 min), percent of total peak area” value ([5]; 2-8 °C, pH 6 and 6.5) was “below 0.4%”, the “Time at which precipitation was observed” value ([5]; 2-8 °C, pH 6.5) was 2 days and the “Time at which precipitation was observed” value ([5]; 2-8 °C, pH 7.0) was 4 days. For the same compound, the Appearance ([5]; 2-8 °C, pH 7.5 and pH 8.0, two weeks) was “no observable change in appearance”, the Appearance ([5]; 40 °C, any pH) was “no physical change in appearance” and the “Deamination product peak area %” value ([5]; 40 °C, pH 6.0) was 1.91%. For the same compound, the “Deamination product peak area %” value ([5]; 40 °C, pH 6.5) was 0.58%, the Instance of diarrhea ([6]; single oral dose 100 mg and 200 mg) was “about 5%” and the Instance of diarrhea ([6]; single oral dose 350 mg) was “about 20%”.
